Literature values in patent publication US20030162803A1, “Anhydrovinblastine for the treatment of cancer” (priority 1997, published 2003).

Settings: triphasic elimination profile; cited from earlier work

SMILES: CC[C@]1(O)C[C@@H]2CN(CCc3c([nH]c4ccccc34)[C@@](C(=O)OC)(c3cc4c(cc3OC)N(C)[C@H]3[C@@](O)(C(=O)OC)[C@H](OC(C)=O)[C@]5(CC)C=CCN6CC[C@]43[C@@H]65)C2)C1 [Vinblastine]
- initial alpha half-life: less than 5 minutes
